{
  "source": "patent US20140093588A1",
  "about": "(Fred Hutchinson Cancer Research Center, priority 2006, published 2014)",
  "key": {"[1]": {"details": "at STP; cited from earlier work"}, "Murine J774 macrophages": {"tested_on": "Murine J774 macrophages", "experiment": "Cell viability (MTT reduction) of macrophages treated with GSNO or ONOO— after sulfide pretreatment", "format": "cell-based", "details": "H2S tested on cells to define the highest tested concentration that would reduce viability", "quoted_text": "Cells were cultured in 96-well plates until cells reached confluence essentially as described in C.\nCell respiration, an indicator of cell viability, was assessed by the mitochondrial-dependent reduction of MTT to formazen (Gross and Levi, 1992). Cells in 96-well plates were incubated at 37° C. with MTT (0.2 mg/ml for 60 min). Culture medium was removed by aspiration, and the cells were solubilized in DMSO. The extent of reduction of MTT to formazan within cells was quantitated by OD550 measurement.\nH2S was tested on cells to define the highest tested concentration that would reduce viability. […] Following pretreatment, cells were treated with GSNO (1 mM, 3 mM, or 10 mM). Cell viability was measured at three hours.\nFollowing pretreatment, ONOO— was added at concentrations of 0.3 mM, 0.6 mM, or 1 mM. Cell viability was measured at three hours.\nThree hours after treatment, cell viability was measured.\nIn a related experiment, Murine J774 macrophages were grown until confluency in 96 well plates. Cells were pretreated with H2S (30 mM, 60 mM, 100 mM, 1 mM) for 30 minutes or 24 hours, then cells were incubated with GSNO or ONOO— for 3 hours. GSNO was used in 1 mM and 3 mM concentrations, while ONOO— was used in 300 mM concentration. Following treatment, cells were incubated for 20 minutes with fresh media containing 0.05% MTT. […] Optical density was measured at 550 nm."}, "[2]": {"details": "cited from earlier work"}, "[3]": {"tested_on": "LPS-induced IL-1 and TNF production", "experiment": "Bacterial lipopolysaccharide endotoxemia in mice, IL-1β and TNFα plasma levels by ELISA", "format": "in vivo, C57/BI6 mice", "details": "Tin-protoporphyrin IX 6 mg/kg ip, 30 min before Alzet H2S treatment", "description": "Four groups of C57/BI6 mice were subjected to bacterial lipopolysaccharide (5 mg/kg ip). Three groups received H2S treatment (0.2 mg/kg/hr, 4 hrs), and a control group received saline using Alzet osmotic minipumps 30 minutes prior to the induction of endotoxemia (n=7−10/group) in both cases. The effect of the heme oxygenase inhibitor tin-protoporphyrin IX (6 mg/kg, ip, 30 min earlier to Alzet treatment) was also examined in two groups. After 4 hours, the animals were anesthetized using pentobarbital (60 mg/kg ip) and blood samples were taken. IL-1β and TNFα plasma levels were measured using a commercially available ELISA kit (R&D Systems)."}},
  "data": [
    {"smiles": "[N]=O", "note": "[NO, nitric oxide]", "values": [
      {"measurement": "soluble in water up to a concentration", "setting": "[1]", "result": "about 2 mM"}
    ]},
    {"smiles": "S", "note": "[H2S, hydrogen sulfide]", "values": [
      {"measurement": "concentration that may confer a protective effect", "setting": "Murine J774 macrophages", "result": 1, "unit": "mM"}
    ]},
    {"smiles": "O=NOO", "note": "[peroxynitrite]", "values": [
      {"measurement": "half-life", "setting": "[2]", "result": "~1", "unit": "s"}
    ]},
    {"smiles": "C=Cc1c2[n-]c(c1C)/C=c1\\[n-]/c(c(C)c1C=C)=C\\c1[n-]c(c(CCC(=O)O)c1C)C=c1[n-]/c(c(C)c1CCC(=O)O)=C\\2.[Sn+4]", "note": "[Tin-protoporphyrin IX, tin-protoporphyrin IX]", "values": [
      {"measurement": "effect of H2S on IL-1 after pretreatment with the heme oxygenase inhibitor", "setting": "[3]", "result": "attenuated"}
    ]}
  ]
}
